For ten compounds, IC50 results are on record in patent US10023592B2, “Bromodomain inhibitors” (Celgene Quanticel Research, Inc., priority 2013, dated 2018).

Structures are written as SMILES. Where two headings read alike, the source gives them in different places.

Experiment [1] has as its system HL-60, human proleukemia cells. The experiment in a line: Cell-MTS proliferation assay, HL-60. Type of experiment: cell-based. To be noted: Homo sapiens, 168 hr. The gist of the method: (§1)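 Seven-day colorimetric MTS assay; compound at 11 concentrations from 100 μM down to 2.0 nM final, added a day after plating. IC50 from OD490 normalised to DMSO controls.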
Background: Tetrazolium dyes change colour on reduction, which living cells bring about.

Experiment [2] has as its target BRD4(BD1) (Homo sapiens (Human), UniProt O60885). The experiment in a line: In vitro enzyme inhibition assay (BRD4 AlphaScreen). It counts as binding. The gist of the method:
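AlphaScreen proximity readout, using streptavidin donor and Ni-chelate acceptor beads at 5 μg/mL final, monitors biotin-H4 tetraacetylated peptide interaction with purified His-tagged BRD4.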
(Alpha assays give light when donor and acceptor beads are brought close together.)

Experiment [3] relates to NCI-H460, human non-small cell lung cancer cells. The experiment in a line: Cell-MTS proliferation assay, NCI-H460. Type of experiment: cell-based. To be noted: Homo sapiens, 168 hr. The gist of the method:
as §1

Experiment [4] has as its system Raji, human Burkitts lymphoma cells. The experiment in a line: Cell-MTS proliferation assay, Raji. As to conditions: Homo sapiens, 168 hr. Type of experiment: cell-based. The gist of the method:
as §1

The mark [5] stands for this setting: in vitro enzyme inhibition assay.
Where [6] appears, read: NCI-H460, Cell-MTS proliferation.
Setting [7] is: Cell-MTS proliferation, HL-60 cells.
Setting [8] is: Cell-MTS proliferation, NCI-H460 cells.
Where [9] appears, read: Cell-MTS proliferation, Raji cells.

With `CCOc1ccc(S(=O)(=O)CC)cc1-c1cn(C)c(=O)c2cnc(-c3cnn(C)c3)nc12` [Example 227, 8-(2-ethoxy-5-ethylsulfonylphenyl)-6-methyl-2-(1-methylpyrazol-4-yl)pyrido[4,3-d]pyrimidin-5-one], the IC50 (commonly the concentration at which inhibition is half-maximal) in experiment [1] (HL-60, Cell-MTS proliferation) was less than 500 nM; in experiment [2] (setting [5]) it was less than 500 nM; in experiment [3] (setting [6]), greater than 5000 nM; in experiment [4] (Raji, Cell-MTS proliferation) it was 500 to 5000 nM.

For the compound `CCCOc1ccc(S(=O)(=O)CC)cc1-c1cn(C)c(=O)c2cnc(-c3cnn(C)c3)nc12` [Example 225, 8-(5-ethylsulfonyl-2-propoxyphenyl)-6-methyl-2-(1-methylpyrazol-4-yl)pyrido[4,3-d]pyrimidin-5-one], the IC50 in experiment [1] (HL-60, Cell-MTS proliferation) is less than 500 nM; in experiment [2] (setting [5]), less than 500 nM; in experiment [3] (setting [6]) it was greater than 5000 nM; in experiment [4] (Raji, Cell-MTS proliferation) it was less than 500 nM.

Turning to `Cn1cc(-c2cc(S(C)(=O)=O)ccc2NCC2CC2)ccc1=O` [Example 468, 5-[2-(cyclopropylmethylamino)-5-methylsulfonylphenyl]-1-methylpyridin-2-one], the IC50 in experiment [1] (setting [7]) is 500 to 5000 nM; in experiment [2] (setting [5]) it was less than 500 nM; in experiment [3] (setting [8]), greater than 5000 nM; in experiment [4] (setting [9]), greater than 5000 nM.

In the case of `Cc1cc(-c2cc(NS(C)(=O)=O)ccc2OC2CCOCC2)cn(C)c1=O` [Example 439, N-[3-(1,5-dimethyl-6-oxopyridin-3-yl)-4-(oxan-4-yloxy)phenyl] methanesulfonamide], the half-inhibitory concentration (IC50) is less than 500 nM in experiment [1] (setting [7]), less than 500 nM in experiment [2] (setting [5]), greater than 5000 nM in experiment [3] (setting [8]) and less than 500 nM in experiment [4] (setting [9]).

Consider `Cc1cc(-c2cc(S(C)(=O)=O)ccc2OCC2CC2)cn(CC2COC2)c1=O` [Example 245, 5-[2-(cyclopropylmethoxy)-5-methylsulfonylphenyl]-3-methyl-1-(oxetan-3-ylmethyl)pyridin-2-one], for which the IC50 in experiment [1] (HL-60, Cell-MTS proliferation) is greater than 5000 nM; in experiment [2] (setting [5]), 500 to 5000 nM; in experiment [3] (setting [6]) it was greater than 5000 nM; in experiment [4] (Raji, Cell-MTS proliferation), greater than 5000 nM.

Turning to `CCCc1ccc(S(C)(=O)=O)cc1-c1ccc(=O)n(C)c1` [Example 313, 1-methyl-5-(5-methylsulfonyl-2-propylphenyl)pyridin-2-one], the IC50 in experiment [1] (HL-60, Cell-MTS proliferation) was 500 to 5000 nM; in experiment [2] (setting [5]) it was 500 to 5000 nM; in experiment [3] (setting [6]) it was greater than 5000 nM; in experiment [4] (Raji, Cell-MTS proliferation) it was greater than 5000 nM.

Regarding `Cn1cc(-c2cc(S(C)(=O)=O)ccc2NCC2CC2)c2ccccc2c1=O` [Example 194, 4-[2-(cyclopropylmethylamino)-5-methylsulfonylphenyl]-2-methylisoquinolin-1-one], the IC50 is less than 500 nM in experiment [1] (HL-60, Cell-MTS proliferation); less than 500 nM in experiment [2]; greater than 5000 nM in experiment [3] (setting [6]); less than 500 nM in experiment [4] (Raji, Cell-MTS proliferation).

With `Cc1cc(-c2cc(NS(C)(=O)=O)ccc2O[C@H]2CC[C@H](O)CC2)cn(C)c1=O` [Example 433, N-[3-(1,5-dimethyl-6-oxopyridin-3-yl)-4-(trans-4-hydroxycyclohexyl)oxyphenyl]methanesulfonamide], the IC50 in experiment [1] (setting [7]) was less than 500 nM; in experiment [2] (setting [5]), less than 500 nM; in experiment [3] (setting [8]) it was greater than 5000 nM; in experiment [4] (setting [9]), less than 500 nM.

Take `Cc1cc(-c2cc(N(C)S(C)(=O)=O)ccc2Oc2ccc(F)cc2F)cn(C)c1=O` [Example 229, N-[4-(2,4-difluorophenoxy)-3-(1,5-dimethyl-6-oxopyridin-3-yl)phenyl]-N-methylmethanesulfonamide]: the IC50 was less than 500 nM in experiment [1] (HL-60, Cell-MTS proliferation); less than 500 nM in experiment [2] (setting [5]); greater than 5000 nM in experiment [3] (setting [6]); less than 500 nM in experiment [4] (Raji, Cell-MTS proliferation).

For the compound `Cn1cc(-c2cc(S(C)(=O)=O)ccc2OCC2CC2)c2ccccc2c1=O` [Example 89, 4-[2-(cyclopropylmethoxy)-5-methylsulfonylphenyl]-2-methylisoquinolin-1-one], the IC50 in experiment [1] (HL-60, Cell-MTS, class symbols A/B/C) was less than 500 nM; in experiment [2] (class symbols A/B/C) it was less than 500 nM; in experiment [3] (NCI-H460, Cell-MTS, class symbols A/B/C) it was greater than 5000 nM; in experiment [4] (Raji, Cell-MTS, class symbols A/B/C), less than 500 nM.
